In patent US20230293629A1, “METHODS FOR ATTENUATING RELEASE OF INFLAMMATORY MEDIATORS AND PEPTIDES USEFUL THEREIN” (BIOMARCK PHARMACEUTICALS LTD., priority 2006, published 2023):
Values joined by “and” are separate entries in the source; they are usually repeats but may differ in a detail not shown here. Equal entries are not always repeated. Where a SMILES comes first, the peptide text is derived from it. Where no end group is shown, it is not given here. The star is where a group is joined. Myristoyl = CCCCCCCCCCCCCC(=O)*

Tests used:
[1] = tested on: ozone-induced neutrophil migration; assay: Mouse model of ozone-induced COPD: neutrophil migration, IL-6, KC, IFNγ in BAL fluid; assay type: in vivo, mice; conditions: for Concentration of IFNγ in BAL fluid / Concentration of KC in BAL fluid / Concentration of IL-6 in BAL fluid: 25 μL 1.0 mM peptide intratracheal 30 min before 2 h ozone; for Concentration of IFNγ in BAL fluid: PBS+ozone 8.6, forced air 5.0; for Concentration of KC in BAL fluid: PBS+ozone 466.6, forced air 36.3; for Concentration of IL-6 in BAL fluid: PBS+ozone 1041.3, forced air 43.2
Method: Ten-week-old Balb/C female mice were obtained from Charles River laboratories and housed under NIH guidelines in groups of 5 per cage. The animals received standard rodent diet and filtered water ad libitum. Three treatment groups of mice, 5 animals in each group, were each anesthetized by intraperitoneal injection of Ketamine (100 mg/kg) and Xylazine (20 mg/kg) and then pretreated by intratracheal administration with 25 μL of either PBS alone, or a solution of 1.0 mM MANS peptide in PBS, or a solution of a 1.0 mM of an acetylated MANS-fragment-peptide Ac-[…] designated as acetylated SEQ ID NO: 106 in PBS. After 30 minutes, the animals were then placed in the appropriate custom-made chamber for ozone or forced air exposures. The animals were exposed to ozone for 2 hours (at ozone concentrations of 1-10 ppm by a slightly modified method described by Haddad et al, 1995. (Haddad E-B, Salmon M, Sun J, Liu S, Das A, Adcock I, Barnes P J, and Chung K F, FEBS Letters, 363:285-288, 1995). The ozone was generated using an ozone generator apparatus model OL80F/B from OzoneLab, Burton, British Columbia, Canada. Ozone concentration was continuously monitored using a Teledyne Photometric 03 Analyzer (model 400E, Teledyne Instruments, City of Industry, CA). Two additional groups of mice, each without any pretreatment, were either exposed to ozone under the same conditions or exposed to forced air under conditions similar to the ozone treatment group but absent ozone. After exposure, the animals were sacrificed by exsanguination and the lungs were serially lavaged 2 times with 1.0 mL aliquots of PBS. The collected bronchoalveolar lavage (BAL) fluid was centrifuged to remove the cells for subsequent counting and differential analysis. Recovered lavage fluid was used for protein and additional analysis of IL-6, IFNγ, and KC (murine IL-8 analog) by ELISA assay (assay kits obtained from R&D Systems, Minneapolis, MN).
The percent inhibition of neutrophil migration into the BAL fluid as a function of treatment groups and relative to a control group treated with PBS alone are provided in the table.

NK-92 cells = assay: PMA-stimulated granzyme release from NK-92 cells (BLT hydrolysis); assay type: cell-based, human; conditions: 50 μM test peptide, two hour incubation with 100 nM PMA
Method: Three types of human leukocyte cell lines, specifically the promyelocytic cell line HL-60 clone 15, the monocytic cell line U937, and the lymphocyte natural killer cell line NK-92 were purchased from American Type Culture Collection (ATCC; Rockville, MD). HL-60 clone 15 cells (ATCC CRL-1964) were maintained in medium consisting of RPMI 1640 with L-glutamine supplemented with 10% heat-inactivated fetal bovine serum (Gibco; Invitrogen Co., Carlsbad, CA), 50 IU/ml penicillin, 50 μg/mL streptomycin, and 25 mM HEPES buffer, pH 7.8, at 37° C. in an atmosphere containing 5% CO2. […] Viability of cells harvested for experiments was assessed by trypan blue exclusion and populations of cells with viability >95% were used. […]
For measurements of released MPO from neutrophils and released lysozyme from U937 cells, we were able to quantify secretion by using as standards human MPO and […], respectively. For released EPO from HL-60 clone 15 cells and for released granzyme from NK-92 cells, no standards were available to use for quantification. […] To measure intracellular EPO in HL-60 clone 15 cells and intracellular granzyme in NK-92 cells, appropriate aliquots of 0.1% triton X-100-lysed cells were taken for quantification of intracellular granule proteins as described below. All treatments were expressed as percentage of control to minimize variability between cultures. […]

[2] = after ozone exposure, vs. PBS control, listed as acetylated SEQ ID NO:106

| Molecule | Concentration of IFNγ in BAL fluid [1] | Concentration of KC in BAL fluid [1] | Concentration of IL-6 in BAL fluid [1] | effect on interferon-γ levels ([1]; after ozone exposure) | diminished IL-6 levels / inhibition of IL-6 levels in BAL fluid [1, 2] | diminished KC concentrations / inhibition of KC levels in BAL fluid [1, 2] | reduced neutrophil cell infiltration in the BAL fluid after ozone exposure ([1]; vs. PBS control) | % Inhibition of neutrophil migration into BAL fluid ([1]; Balb/C mice, intratracheal pretreatment with 25 μL of 1.0 mM peptide in PBS 30 minutes before 2 hours ozone exposure, relative to control group treated with PBS alone) | % Inhibition Granzyme (NK-92 cells) |
| --- | --- | --- | --- | --- | --- | --- | --- | --- | --- |
| Ac-GAQFSKTAAK [Ac-GAQFSKTAAK] | approximately 3.6 pg/mL | approximately 159.7 pg/mL | approximately 130.4 pg/mL | little effect | 91.3%±15% and ~91% | 71.3%±10% and ~71% | 81%±10% |  |  |
| CCCCCCCCCCCCCC(=O)NCC(=O)N[C@@H](C)C(=O)N[C@@H](CCC(N)=O)C(=O)N[C@@H](Cc1ccccc1)C(=O)N[C@@H](CO)C(=O)N[C@@H](CCCCN)C(=O)N[C@H](C(=O)N[C@@H](C)C(=O)N[C@@H](C)C(=O)N[C@@H](CCCCN)C(=O)NCC(=O)N[C@@H](CCC(=O)O)C(=O)N[C@@H](C)C(=O)N[C@@H](C)C(=O)N[C@@H](C)C(=O)N[C@@H](CCC(=O)O)C(=O)N[C@@H](CCCNC(=N)N)C(=O)N1CCC[C@H]1C(=O)NCC(=O)N[C@@H](CCC(=O)O)C(=O)N[C@@H](C)C(=O)N[C@@H](C)C(=O)N[C@H](C(=O)N[C@@H](C)C(=O)O)C(C)C)[C@@H](C)O [MANS] (Myristoyl-GAQFSKTAAKGEAAAERPGEAAVA-OH; C-terminus assumed) | approximately 7.4 pg/mL | approximately 183.6 pg/mL | approximately 364.5 pg/mL | little effect |  |  | 93%±10% | 93.0% | 76.0% |
| CCCCCCCCCCCCCC(=O)NCC(=O)N[C@H](C(=O)N[C@@H](C)C(=O)N1CCC[C@H]1C(=O)N[C@@H](C)C(=O)N[C@@H](C)C(=O)N[C@@H](CCC(=O)O)C(=O)NCC(=O)N[C@@H](C)C(=O)NCC(=O)N[C@@H](C)C(=O)N[C@@H](CCC(=O)O)C(=O)N[C@H](C(=O)N[C@@H](CCCCN)C(=O)N[C@@H](CCCNC(=N)N)C(=O)N[C@@H](C)C(=O)N[C@@H](CO)C(=O)N[C@@H](C)C(=O)N[C@@H](CCC(=O)O)C(=O)N[C@@H](C)C(=O)N[C@@H](CCCCN)C(=O)N[C@@H](CCC(N)=O)C(=O)N[C@@H](C)C(=O)N[C@@H](Cc1ccccc1)C(=O)O)C(C)C)[C@@H](C)O [RNS, reference compound] (Myristoyl-GTAPAAEGAGAEVKRASAEAKQAF-OH; C-terminus assumed) |  |  |  |  |  |  |  |  | 29.5% |
